Measured values published in ChEMBL document CHEMBL1250444, “Nitric oxide activates TRP channels by cysteine S-nitrosylation” (Nat Chem Biol, 2006).
Positions count from the first letter of the chain named. Activity calls are given as the source filed them. The calls are words filed in the database; no cut-off is given here.

Assays:
Format in all cases: cell-based
[1] = target: Transient receptor potential cation channel subfamily V member 1 (Rattus norvegicus) (UniProt O35433); experiment: Activation of rat TRPV1 expressed in HEK cells assessed as increase in Ca2+ level from extracellular space at 10 uM; details: HEK293
Transient receptor potential cation channel subfamily V member 1 (Rattus norvegicus), sequence (O35433 whole entry): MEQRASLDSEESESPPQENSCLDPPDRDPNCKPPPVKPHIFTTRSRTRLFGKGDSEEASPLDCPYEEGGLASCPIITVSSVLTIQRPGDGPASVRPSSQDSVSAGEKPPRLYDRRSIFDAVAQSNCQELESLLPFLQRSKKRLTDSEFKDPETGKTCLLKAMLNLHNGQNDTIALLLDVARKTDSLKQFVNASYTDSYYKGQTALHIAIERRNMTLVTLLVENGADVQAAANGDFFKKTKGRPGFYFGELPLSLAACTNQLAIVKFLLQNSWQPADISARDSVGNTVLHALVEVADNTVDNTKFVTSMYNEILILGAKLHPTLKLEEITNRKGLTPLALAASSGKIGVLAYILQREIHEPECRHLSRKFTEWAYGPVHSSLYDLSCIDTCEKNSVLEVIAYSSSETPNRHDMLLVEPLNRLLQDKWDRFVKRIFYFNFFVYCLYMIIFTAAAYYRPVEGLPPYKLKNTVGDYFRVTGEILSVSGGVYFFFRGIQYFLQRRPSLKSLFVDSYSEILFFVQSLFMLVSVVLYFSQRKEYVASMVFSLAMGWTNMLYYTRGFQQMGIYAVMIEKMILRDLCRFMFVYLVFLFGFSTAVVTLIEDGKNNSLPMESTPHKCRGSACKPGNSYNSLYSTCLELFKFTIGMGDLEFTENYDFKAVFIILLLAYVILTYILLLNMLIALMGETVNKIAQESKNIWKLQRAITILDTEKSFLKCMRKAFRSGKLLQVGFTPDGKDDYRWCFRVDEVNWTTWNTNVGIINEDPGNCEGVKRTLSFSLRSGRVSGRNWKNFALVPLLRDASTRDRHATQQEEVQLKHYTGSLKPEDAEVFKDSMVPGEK

[2] = tested on: T1, Short transient receptor potential channel 5 (Homo sapiens), Q9UL62 [C558S]; experiment: Decrease in TRPC5 C558S mutant S-nitrosylation in HEK cells assessed as inhibition of incorporation of DTNB-2Bio at 30 uM relative to control; details: HEK293
T1 sequence (whole entry): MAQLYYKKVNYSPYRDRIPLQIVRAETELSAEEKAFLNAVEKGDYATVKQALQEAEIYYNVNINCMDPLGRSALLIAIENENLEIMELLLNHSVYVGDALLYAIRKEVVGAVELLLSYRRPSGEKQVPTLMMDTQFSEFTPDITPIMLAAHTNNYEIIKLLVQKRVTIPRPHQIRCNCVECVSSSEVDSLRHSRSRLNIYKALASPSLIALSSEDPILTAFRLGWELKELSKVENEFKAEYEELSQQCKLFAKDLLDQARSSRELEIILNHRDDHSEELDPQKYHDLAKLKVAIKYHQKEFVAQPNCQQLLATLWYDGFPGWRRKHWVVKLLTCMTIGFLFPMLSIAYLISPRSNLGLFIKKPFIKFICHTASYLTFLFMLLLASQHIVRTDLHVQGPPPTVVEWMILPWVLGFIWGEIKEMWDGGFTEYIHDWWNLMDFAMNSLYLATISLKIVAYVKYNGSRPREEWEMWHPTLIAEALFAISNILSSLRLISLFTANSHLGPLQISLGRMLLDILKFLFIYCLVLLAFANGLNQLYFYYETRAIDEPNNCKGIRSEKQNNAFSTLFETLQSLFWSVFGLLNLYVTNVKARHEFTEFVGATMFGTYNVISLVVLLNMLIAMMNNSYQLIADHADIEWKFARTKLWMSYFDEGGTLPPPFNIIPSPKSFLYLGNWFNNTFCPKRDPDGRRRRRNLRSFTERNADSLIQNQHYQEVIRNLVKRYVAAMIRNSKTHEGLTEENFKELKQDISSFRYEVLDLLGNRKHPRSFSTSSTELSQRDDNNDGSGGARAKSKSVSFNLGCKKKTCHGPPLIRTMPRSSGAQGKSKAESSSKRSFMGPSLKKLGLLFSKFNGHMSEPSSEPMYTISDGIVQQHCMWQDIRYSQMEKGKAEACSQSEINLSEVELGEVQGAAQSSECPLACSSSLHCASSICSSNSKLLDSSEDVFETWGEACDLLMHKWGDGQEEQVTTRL

HEK293 = experiment: Activation of rat TRPV1 Cys621 mutant expressed in HEK cells assessed as increase in Ca2+ level from extracellular space at 0.1 to 1 mM
[3] = target: T2, Transient receptor potential cation channel subfamily V member 3 (Homo sapiens) (UniProt Q8NET8); experiment: Activation of TRPV3 in HEK cells assessed as increase in Ca2+ level from extracellular space at 300 uM; details: HEK293
T2 sequence (whole entry): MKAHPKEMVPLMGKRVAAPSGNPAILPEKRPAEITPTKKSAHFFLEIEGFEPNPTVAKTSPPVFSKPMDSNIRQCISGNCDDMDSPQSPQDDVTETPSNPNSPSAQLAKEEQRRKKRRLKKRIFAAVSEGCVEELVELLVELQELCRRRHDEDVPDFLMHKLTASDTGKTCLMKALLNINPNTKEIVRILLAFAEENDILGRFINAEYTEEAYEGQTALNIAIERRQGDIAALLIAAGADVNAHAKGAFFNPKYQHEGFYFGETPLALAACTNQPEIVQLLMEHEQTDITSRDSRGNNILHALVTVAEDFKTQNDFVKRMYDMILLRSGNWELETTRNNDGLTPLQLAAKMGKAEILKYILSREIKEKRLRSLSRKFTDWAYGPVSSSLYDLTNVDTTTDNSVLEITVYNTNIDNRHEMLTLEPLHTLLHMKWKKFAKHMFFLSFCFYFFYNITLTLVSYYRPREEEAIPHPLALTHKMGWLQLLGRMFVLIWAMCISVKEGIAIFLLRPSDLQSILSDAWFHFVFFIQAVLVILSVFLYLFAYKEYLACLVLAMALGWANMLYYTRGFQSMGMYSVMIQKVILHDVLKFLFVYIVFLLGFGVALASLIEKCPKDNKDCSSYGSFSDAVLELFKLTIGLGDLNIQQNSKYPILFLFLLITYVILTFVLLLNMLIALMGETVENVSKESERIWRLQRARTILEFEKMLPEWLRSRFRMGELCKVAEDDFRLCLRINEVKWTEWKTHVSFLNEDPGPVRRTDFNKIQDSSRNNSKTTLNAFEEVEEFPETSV

[4] = target: T3, Short transient receptor potential channel 5 (Homo sapiens) (UniProt Q9UL62); experiment: Induction of S-nitrosylation of TRPC5 in HEK cells assessed as inhibition of incorporation of DTNB-2Bio at 5 mM; details: HEK293
T3 sequence (whole entry): T1 sequence (whole entry) with S558C

Row | Activity [1] | Activity [2] | Activity [3] | Activity [4] | Structure (SMILES) | Activity (HEK293)
1 | Active | Active | – | – | O=[N+]([O-])c1ccc(SSc2ccc([N+](=O)[O-])cn2)nc1 | –
2 | – | – | Active | Active | CC(=O)N[C@@H](C(=O)O)C(C)(C)SN=O (racemic) | inactive
